pIC50: −log10 of the molar value. Read-outs that look alike come from different tables or passages of the source.
What was measured:
[1] = tested on: GDF8; experiment: AlphaScreen SureFire p-SMAD3 (Ser423/425) assay, GDF8-stimulated cells; assay type: cell-based
Procedure, shortened: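 Lysate (5 μL) went into 384-well shallow plates with 5 μL of Reaction Buffer, Activation Buffer and AlphaScreen Acceptor bead mix. Plates were sealed, kept dark and shaken for 2 hours at room temperature. Donor beads in dilution buffer (2 μL) were added for another 1½ hours, and p-SMAD3 signal was read on a Synergy-4 or Enspire reader.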

[2] = tested on: TGF-β; experiment: AlphaScreen SureFire p-SMAD3 (Ser423/425) assay, TGF-β-stimulated cells; assay type: cell-based
Procedure, shortened: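 The p-SMAD-3 (Ser423/425) SureFire assay measured phosphorylation of endogenous SMAD-3 in cell lysates. Cells were plated overnight in collagen-coated plates, exposed to three-fold serially diluted compounds for about 10 minutes, then stimulated with TGFβ. Lysates (5 μL) received acceptor bead mix for 2 hours, then donor beads for 1½ hours before AlphaScreen reading.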

[3] = Mus musculus, MPC-11, read-out: GDF8: inhibition of GDF8 signaling, GDF pSMAD (MPC11), p-SMAD3 (Ser423/425) AlphaScreen in cell lysate, GDF8 stimulation
[4] = Mus musculus, MPC-11, read-out: TGF-β: inhibition of TGF-β signaling, TGF-β pSMAD (MPC-11), p-SMAD3 (Ser423/425) AlphaScreen in cell lysate, TGF-β stimulation
[5] = Mus musculus, MPC-11, p-SMAD3 (Ser423/425) AlphaScreen in cell lysate, MPC11, GDF8 stimulation, read-out: GDF8: inhibition of GDF8 signaling, GDF pSMAD (MPC11)
[6] = Mus musculus, p-SMAD3 (Ser423/425) AlphaScreen in cell lysate, MPC-11, TGF-β stimulation, read-out: TGF-β: inhibition of TGF-β signaling, TGF-β pSMAD (MPC-11)

| SMILES | pIC50 [1, 5] | pIC50 [2, 6] | also measured |
| --- | --- | --- | --- |
| O=S(=O)(Nc1cccc(-c2nc3n(c2-c2ccc4[nH]ncc4c2)CCC3)c1)c1ccccc1F [Compound 320, N-(3-(3-(1H-indazol-5-yl)-6,7-dihydro-5H-pyrrolo[1,2-a]imidazol-2-yl)phenyl)-2-fluorobenzenesulfonamide] | – | – | pIC50 [1, 3]: < 6.00; pIC50 [2, 4]: < 6.00 |
| CCOC(=O)C1CCC2(CC1)Cc1nc(-c3ccc(F)cc3)c(-c3ccc4nccnc4c3)n1C2 (centres unmarked) [Compound 333, Ethyl 2′-(4-fluorophenyl)-3′-(quinoxalin-6-yl)-5′H,7′H-spiro[cyclohexane-1,6′-pyrrolo[1,2-a]imidazole]-4-carboxylate] | – | – | pIC50 [1, 3]: < 6.00; pIC50 [2, 4]: < 6.00 |
| COc1c(C)cc(-c2nc3n(c2-c2ccc4nccn4c2)CCC3)cc1C [Compound 31, 6-(2-(4-methoxy-3,5-dimethylphenyl)-6,7-dihydro-5H-pyrrolo[1,2-c]imidazol-3-yl)imidazo[1,2-c]pyridine] | < 6.00 | < 6.00 | – |
| Fc1ccc(-c2nc3n(c2-c2ccc4ncnn4c2)CCC3)c(F)c1Cl [Compound 81, 6-(2-(3-chloro-2,4-difluorophenyl)-6,7-dihydro-5H-pyrrolo[1,2-a]imidazol-3-yl)-[1,2,4]triazolo[1,5-a]pyridine] | – | – | pIC50 [1, 3]: 6.00 to 7.00; pIC50 [2, 4]: 6.00 to 7.00 |
| Cc1cc(F)c(-c2nc3n(c2-c2ccc4ncnn4c2)CCC3)cc1F [Compound 47, 6-(2-(2,5-difluoro-4-methylphenyl)-6,7-dihydro-5H-pyrrolo[1,2-a]imidazol-3-yl)-[1,2,4]triazolo[1,5-a]pyridine] | < 6.00 | < 6.00 | – |
| Clc1cccc(-c2nc3n(c2-c2ccc4[nH]ncc4c2)CCC3)c1 [Compound 189, 5-(2-(3-chlorophenyl)-6,7-dihydro-5H-pyrrolo[1,2-a]imidazol-3-yl)-1H-indazole] | – | – | pIC50 [1, 3]: 7.00 to 7.30; pIC50 [2, 4]: 6.00 to 7.00 |
| Cc1cc(-c2nc3n(c2-c2ccc4ncccc4c2)CCC3)c(Cl)cc1F [Compound 322, 6-(2-(2-chloro-4-fluoro-5-methylphenyl)-6,7-dihydro-5H-pyrrolo[1,2-a]imidazol-3-yl)quinoline] | – | – | pIC50 ([1]; read-out: GDF8: inhibition of GDF8 signaling, GDF pSMAD (MPC11), p-SMAD3 (Ser423/425) AlphaScreen in cell lysate, GDF8 stimulation): < 6.00; pIC50 ([2]; read-out: TGF-β: inhibition of TGF-β signaling, TGF-β pSMAD (MPC-11), p-SMAD3 (Ser423/425) AlphaScreen in cell lysate, TGF-β stimulation): < 6.00 |
| CN(C)CCOc1cnc2ccc(-c3c(-c4cc(F)cc(F)c4F)nc4n3CCC4)cc2n1 [Compound 361, N,N-dimethyl-2-((7-(2-(2,3,5-trifluorophenyl)-6,7-dihydro-5H-pyrrolo[1,2-a]imidazol-3-yl)quinoxalin-2-yl)oxy)ethan-1-amine] | – | – | pIC50 [1, 3]: < 6.00; pIC50 [2, 4]: < 6.00 |
| Fc1cc(-c2nc3n(c2-c2ccc4nccn4c2)CCC3)cc(F)c1F [Compound 13] | 6.00 to 7.00 | < 6.00 | – |
| Fc1ccc(-c2nc3n(c2-c2ccc4ncsc4c2)CCC3)c(F)c1F [Compound 226, 6-(2-(2,3,4-trifluorophenyl)-6,7-dihydro-5H-pyrrolo[1,2-a]imidazol-3-yl)benzo[d]thiazole] | – | – | pIC50 [1, 3]: 6.00 to 7.00; pIC50 [2, 4]: 6.00 to 7.00 |
| COc1cccc(-c2nc3n(c2-c2ccc4nccn4c2)CCC3)c1 [Compound 5] | 6.00 to 7.00 | 6.00 to 7.00 | – |
| Cc1ccc(F)cc1-c1nc2n(c1-c1ccc3[nH]ncc3c1)CCC2 [Compound 300, 5-(2-(5-fluoro-2-methylphenyl)-6,7-dihydro-5H-pyrrolo[1,2-a]imidazol-3-yl)-1H-indazole] | – | – | pIC50 [1, 3]: < 6.00; pIC50 [2, 4]: < 6.00 |
| Fc1cc(-c2nc3n(c2-c2ccc4ncnn4c2)CCC3)cc(F)c1F [Compound 16, 6-(2-(3,4,5-trifluorophenyl)-6,7-dihydro-5H-pyrrolo[1,2-a]imidazol-3-yl)-[1,2,4]triazolo[1,5-a]pyridine] | 6.00 to 7.00 | < 6.00 | – |

Second part, led by results:

| pIC50 [1, 5] | pIC50 [2, 6] | SMILES | also measured |
| --- | --- | --- | --- |
| > 7.30 | 7.00 to 7.30 | Cc1cc(-c2nc3n(c2-c2ccc4[nH]ncc4c2)CCC3)c(F)cc1F [Compound 268, 5-(2-(2,4-difluoro-5-methylphenyl)-6,7-dihydro-5H-pyrrolo[1,2-a]imidazol-3-yl)-1H-indazole] | – |
| 7.00 to 7.30 | 6.00 to 7.00 | Cc1cc(-c2nc3n(c2-c2ccc4nccn4c2)CCC3)c(Cl)cc1F [Compound 68, 6-(2-(2-chloro-4-fluoro-5-methylphenyl)-6,7-dihydro-5H-pyrrolo[1,2-a]imidazol-3-yl)imidazo[1,2-a]pyridine] | – |
| 6.00 to 7.00 | < 6.00 | Cc1cc(-c2nc3n(c2-c2ccc4ncnn4c2)CCC3)c(C)cc1F [Compound 64, 6-(2-(4-fluoro-2,5-dimethylphenyl)-6,7-dihydro-5H-pyrrolo[1,2-a]imidazol-3-yl)-[1,2,4]triazolo[1,5-a]pyridine] | – |
| 6.00 to 7.00 | < 6.00 | Cc1c(-c2nc3n(c2-c2ccc4ncccc4c2)CCC3)ccc(F)c1F [Compound 263, 6-(2-(3,4-difluoro-2-methylphenyl)-6,7-dihydro-5H-pyrrolo[1,2-a]imidzaol-3-yl)quinoline] | – |
| 6.00 to 7.00 | 6.00 to 7.00 | Cc1ccc(Cl)cc1-c1nc2n(c1-c1ccc3ncnn3c1)CCC2 [Compound 90, 6-(2-(5-chloro-2-methyl)-6,7-dihydro-5H-pyrrolo[1,2-a]imidazol-3-yl)-[1,2,4]triaolo[1,5-a]pyridine] | – |
| > 7.30 | > 7.30 | CN(C)CCOc1cnc2ccc(-c3c(-c4cc(Cl)ccc4F)nc4n3CCC4)cc2n1 [Compound 363, 2-((7-(2-(5-chloro-2-fluorophenyl)-6,7-dihydro-5H-pyrrolo[1,2-a]imidazol-3-yl)quinoxalin-2-yl)oxy)-N,N-dimethylethan-1-amine] | – |
| > 7.30 | > 7.30 | Fc1cc(F)c(-c2nc3n(c2-c2ccc4ncnn4c2)CCC3)cc1Cl [Compound 94, 6-(2-(5-chloro-2,4-difluoro)-6,7-dihydro-5H-pyrrolo[1,2-a]imidazol-3-yl)-[1,2,4]triazolo[1,5-a]pyridine] | – |
| < 6.00 | < 6.00 | COCCOc1cnc2ccc(-c3c(-c4cc(F)cc(F)c4F)nc4n3CCCN4)cc2n1 [Compound 167, 2-(2-methoxyethoxy)-7-(2-(2,3,5-trifluorophenyl)-5,6,7,8-tetrahydroimidazo[1,2-a]pyrimidin-3-yl)quinoxaline] | – |
| 6.00 to 7.00 | < 6.00 | Fc1ccccc1-c1nc2n(c1-c1cc3cnccc3s1)CCC2 [Compound 100, 2-(2-(2-fluorophenyl)-6,7-dihydro-5H-pyrrolo[1,2-a]imidazol-3-yl)thieno[3,2-c]pyridine] | – |
| 7.00 to 7.30 | 7.00 to 7.30 | c1ccc(-c2nc3n(c2-c2ccc4nccnc4c2)CCC3)nc1 [Compound 368, 6-(2-(pyridin-2-yl)-6,7-dihydro-5H-pyrrolo[1,2-a]imidazol-3-yl)quinoxaline] | – |
| < 6.00 | < 6.00 | Cc1cc(-c2nc3n(c2-c2ccc4[nH]ncc4c2)CCC3)cc(C)c1Cl [Compound 243, 5-(2-(4-chloro-3,5-dimethylphenyl)-6,7-dihydro-5H-pyrrolo[1,2-a]imidazol-3-yl)-1H-indazole] | – |
| > 7.30 | 7.00 to 7.30 | c1ccc(-c2nc3n(c2-c2ccc4ncccc4c2)CCC3)nc1 [Compound 369, 6-(2-(pyridin-2-yl)-6,7-dihydro-5H-pyrrolo[1,2-a]imidazol-3-yl)quinoline] | – |
| 7.00 to 7.30 | 6.00 to 7.00 | FC(F)(F)c1cccc(-c2nc3n(c2-c2ccc4[nH]ncc4c2)CCC3)c1 [Compound 181, 5-(2-(3-(trifluoromethyl)phenyl)-6,7-dihydro-5H-pyrrolo[1,2-a]imidazol-3-yl)-1H-indazole] | – |
| 6.00 to 7.00 | < 6.00 | Fc1ccc(-c2nc3n(c2-c2ccc4cn[nH]c4c2)CCC3)cc1F [Compound 206, 6-(2-(3,4-difluorophenyl)-6,7-dihydro-5H-pyrrolo[1,2-a]imidazol-3-yl)-1H-indazole] | – |
| 6.00 to 7.00 | 6.00 to 7.00 | Fc1ccccc1-c1nc2n(c1-c1ccc3ncsc3c1)CCC2 [Compound 199, 6-(2-(2-fluorophenyl)-6,7-dihydro-5H-pyrrolo[1,2-a]imidazol-3-yl)benzo[d]thiazole] | – |
| 6.00 to 7.00 | < 6.00 | Cc1c(F)ccc(-c2nc3n(c2-c2ccc4nccn4c2)CCC3)c1Cl [Compound 67, 6-(2-(2-chloro-4-fluoro-3-methylphenyl)-6,7-dihydro-5H-pyrrolo[1,2-a]imidazol-3-yl)imidazo[1,2-a]pyridine] | – |
| 6.00 to 7.00 | < 6.00 | Cc1cc(F)ccc1-c1nc2n(c1-c1ccc3nccn3c1)CCC2 [Compound 55, 6-(2-(4-fluoro-2-methylphenyl)-6,7-dihydro-5H-pyrrolo[1,2-a]imidazol-3-yl)imidazo[1,2-a]pyridine] | – |
| > 7.30 | > 7.30 | CN(C)CCOc1cnc2ccc(-c3c(-c4cc(F)c(F)cc4F)nc4n3CCN4)cc2n1 [Compound 120, N,N-dimethyl-2-((7-(6-(2,4,5-trifluorophenyl)-2,3-dihydro-1H-imidazo[1,2-a]imidazol-5-yl)quinoxalin-2-yl)oxy)ethan-1-amine] | – |

Source: patent publication US10696693B2, “Fused imidazole derivatives as TGF-beta inhibitors” (Rigel Pharmaceuticals, Inc., priority 2014, dated 2020)
